Key:
Dermcidin [1] = test: Dermcidin immunofluorescent staining in human microdissected scalp hair follicle organ culture; assay type: cell-based; conditions: 500 μM, 3 and 5 days, ex vivo
Description: (§1) Human scalp samples were obtained 1 day after face-lifting procedure (i.e. after overnight transport from collaborating surgeons) and used at the same day for microdissecting human anagen VI scalp HFs. […] Microdissected human scalp HFs were cultured at 37° C. with 5% CO2 in a minimal media of William's E media (WEM, Gibco, Life technologies) supplemented with 2 mM of L-glutamine (Gibco), 10 ng/ml hydrocortisone (Sigma-Aldrich), 10 μg/ml insulin (Sigma-Aldrich) and 1% penicillin/streptomycin mix (Gibco) (WEM). After microdissection, the HFs were first incubated in WEM for 24 hrs for re-equilibration.
(§2) After 24 hours, WEM medium was replaced and HFs were treated with vehicle (0.1% DMSO), sandal pentanol 500 μM, for 3 or 5 days for (immuno-)histology or 6 hours for microarray. Culture medium was replaced every second day and after […], HFs were then embedded in cryomatrix (Fisher Scientific), and snap frozen in liquid nitrogen for (immuno-)histology.
OCT embedded samples were sectioned with a Leica cryostat. Dermicidin protein was detected using tissue sections fixed in 4% paraformaldehyde, pre-incubated with 10% of goat serum, and incubated with a mouse anti-human Dermcidin (Novus Biologicals, G-81, 1:200). Secondary antibody (Goat anti—mouse Alexa fluor 488) incubation was performed at room temperature for 45 min. Counterstaning with DAPI (1 μg/mL) was performed to visualize nuclei.

Dermcidin [2] = test: Microarray analysis of human microdissected scalp hair follicles; assay type: cell-based; conditions: sandal pentanol 500 μM, 6 hours, vs vehicle (0.1% DMSO)
Description: as §1, §2

With `CC1=CCC(CCC(C)C(C)O)C1(C)C` (stereo not drawn) [Sandalore, 3-methyl-5-(2,2,3-trimethylcyclopent-3-en-1-yl)pentan-2-ol] the “Dermcidin protein expression in hair follicle outer root sheath keratinocytes” value (Dermcidin [1]) was “increased”, the “Dermcidin expression increase (microarray)” value (Dermcidin [2]) was 77.6 folds and the “transcripts of AMPs genes (microarray)” value (Dermcidin [2]) was “up-regulated”.

— patent US20220071921A1, “COMPOUNDS FOR PREVENTING AND TREATING SKIN OR MUCOSAL AFFECTIONS HAVING AN INFLAMMATORY COMPONENT” (GIULIANI S.P.A., priority 2018, published 2022)
